This passage reports IC50 results from patent US12187713B2, “Immunomodulators, compositions and methods thereof” (Betta Pharmaceuticals Co., Ltd, priority 2019, dated 2025).

Where a name gives a salt, the structure may show the parent alone.

Sequence of PD-1/PD-L1 (Q9NZQ7 19-238): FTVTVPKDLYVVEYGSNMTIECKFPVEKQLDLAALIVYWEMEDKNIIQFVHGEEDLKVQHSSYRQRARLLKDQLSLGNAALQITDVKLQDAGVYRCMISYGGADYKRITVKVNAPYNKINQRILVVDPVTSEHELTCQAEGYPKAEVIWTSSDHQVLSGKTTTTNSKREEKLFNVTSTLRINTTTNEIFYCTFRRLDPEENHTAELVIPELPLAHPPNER

The target of one assay is PD-1/PD-L1 (Homo sapiens (Human), UniProt Q9NZQ7). The assay is described as follows: PD-1/PD-L1 Binding Assay (Alphascreen). To be noted: numeric values. Put shortly:
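PD-1/PD-L1 binding detected by anti-6×His acceptor and streptavidin donor beads after 120 min in the dark at 25 °C. Beforehand, the two proteins were incubated 15 min at 25 °C with inhibitor at 0.015–300 nM (1% DMSO). IC50 comes from a log concentration–response curve.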
By IC50 is commonly meant the concentration at which inhibition is half-maximal. With `Cc1c(-c2ccc(NC(=N)N)cc2)cccc1-c1cccc(-c2nc3cc(CN4CCC[C@H]4C(=O)O)c(OC(F)F)cc3o2)c1C` [Example 225, ((6-(difluoromethoxy)-2-(4″-guanidino-2,2′-dimethyl-[1,1′:3,1″-terphenyl]-3-yl)benzo[d]oxazol-5-yl)methyl)-L-proline], the IC50 worked out at 2 nM.

In the case of `Cc1c(-c2ccc(CN(C)CCCN(C)C)cc2)cccc1-c1cccc(-c2nc3cc(CN4CCC[C@H]4C(=O)O)c(OC(F)F)cc3o2)c1C` [Example 226, ((6-(difluoromethoxy)-2-(4″-(((3-(dimethylamino)propyl)(methyl)amino)methyl)-2,2′-dimethyl-[1,1′:3′,1″-terphenyl]-3-yl)benzo[d]oxazol-5-yl)methyl)-L-proline], the IC50 is 4.7 nM.

Consider `Cc1c(-c2ccc(CN3CCC(N(C)C)C3)cc2)cccc1-c1cccc(-c2nc3cc(CN4CCC[C@H]4C(=O)O)c(OC(F)F)cc3o2)c1C` (stereo partly drawn) [Example 228, ((6-(difluoromethoxy)-2-(4″-((3-(dimethylamino)pyrrolidin-1-yl)methyl)-2,2′-dimethyl-[1,1′:3′,1″-terphenyl]-3-yl)benzo[d]oxazol-5-yl)methyl)-L-proline], for which the IC50 came to 4.3 nM.

On to `Cc1c(-c2ccc(CN3CCCC3)c(Cl)c2)cccc1-c1cccc(-c2nc3cc(CN4CCC[C@H]4C(=O)O)c(OC(F)F)cc3o2)c1C` [Example 229, ((2-(3″-chloro-2,2′-dimethyl-4″-(pyrrolidin-1-ylmethyl)-[1,1′:3′,1″-terphenyl]-3-yl)-6-(difluoromethoxy)benzo[d]oxazol-5-yl)methyl)-L-proline], for which the IC50 was 6.9 nM.

In turn, `Cc1cc(-c2cccc(-c3cccc(-c4nc5cc(CN6CCC[C@H]6C(=O)O)c(OC(F)F)cc5o4)c3C)c2C)ccc1CN1CCCC1` [Example 230, ((6-(difluoromethoxy)-2-(2,2′,3″-trimethyl-4″- (pyrrolidin-1-ylmethyl)-[1,1′:3′,1″-terphenyl]-3-yl)benzo[d]oxazol-5-yl)methyl)-L-proline] came in with an IC50 of 1.5 nM.

Take `Cc1c(-c2ccc(CN3CCCC3)c(OC(F)(F)F)c2)cccc1-c1cccc(-c2nc3cc(CN4CCC[C@H]4C(=O)O)c(OC(F)F)cc3o2)c1C` [Example 232, ((6-(difluoromethoxy)-2-(2,2′-dimethyl-4″- (pyrrolidin-1-ylmethyl)-3″-(trifluoromethoxy)-[1,1′:3′,1″-terphenyl]-3-yl)benzo[d]oxazol-5-yl)methyl)-L-proline]: the IC50 was 7.8 nM.

As to `Cc1cc(-c2cccc(-c3cccc(-c4nc5cc(CN6CCC[C@H]6C(=O)O)c(OC(F)F)cc5o4)c3C)c2C)cc(C)c1CN1CCCC1` [Example 234, ((6-(difluoromethoxy)-2-(2,2′,3″,5″-tetramethyl-4″-(pyrrolidin-1-ylmethyl)-[1,1′:3′,1″- terphenyl]-3-yl)benzo[d]oxazol-5-yl)methyl)-L-proline], the IC50 was 0.52 nM.

Compound `COc1cc(-c2cccc(-c3cccc(-c4nc5cc(CN6CCC[C@H]6C(=O)O)c(OC(F)F)cc5o4)c3C)c2C)cc(F)c1CN1CCCC1` [Example 235, ((6-(difluoromethoxy)-2-(3″-fluoro-5″- methoxy-2,2′-dimethyl-4″-(pyrrolidin-1-ylmethyl)-[1,1′:3′,1″-terphenyl]-3-yl)benzo[d]oxazol-5-yl)methyl)-L-proline] gave an IC50 of 1.8 nM.

Consider `Cc1c(-c2ccc(CN3CCCC3)c(C(=O)O)c2)cccc1-c1cccc(-c2nc3cc(CN4CCC[C@H]4C(=O)O)c(OC(F)F)cc3o2)c1C` [Example 236, ((2-(3″-carboxy-2,2′-dimethyl-4″-(pyrrolidin-1-ylmethyl)-[1,1′:3′,1″-terphenyl]-3-yl)-6-(difluoromethoxy)benzo[d]oxazol-5-yl)methyl)-L-proline], for which the IC50 was 290 nM.

In the case of `Cc1c(-c2ccc(CN3CCC(C)C3)c(F)c2)cccc1-c1cccc(-c2nc3cc(CN4CCC[C@H]4C(=O)O)c(OC(F)F)cc3o2)c1C` (stereo partly drawn) [Example 238, ((6-(difluoromethoxy)-2-(3″-fluoro-2,2′-dimethyl-4″-((3-methylpyrrolidin-1-yl)methyl)-[1,1′:3′,1″-terphenyl]-3-yl)benzo[d]oxazol-5-yl)methyl)-L-proline], the IC50 is 2.3 nM.

For the compound `Cc1c(-c2ccc(CNCCO)c(F)c2)cccc1-c1cccc(-c2nc3cc(CN4CCC[C@H]4C(=O)O)c(OC(F)F)cc3o2)c1C` [Example 239, ((6-(difluoromethoxy)-2-(3″-fluoro-4″-(((2-hydroxyethyl)amino)methyl)-2,2′-dimethyl-[1,1′:3′,1″-terphenyl]-3-yl)benzo[d]oxazol-5-yl)methyl)-L-proline], the IC50 came out at 0.99 nM.

`Cc1c(-c2c[nH]c([C@@H]3CCCN3)n2)cccc1-c1cccc(-c2nc3cc(CN4CCC[C@H]4C(=O)O)c(OC(F)F)cc3o2)c1C` [Example 247, ((6-(difluoromethoxy)-2-(2,2′-dimethyl-3′-(2-((S)-pyrrolidin-2-yl)-1H-imidazol-4-yl)-[1,1′-biphenyl]-3-yl)benzo[d]oxazol-5-yl)methyl)-L-proline] yielded an IC50 of 5.2 nM.

With `COc1cc(-c2cccc(-c3cccc(-c4nc5cc(CN6CCC[C@H]6C(=O)O)c(OC(F)F)cc5o4)c3C)c2C)cc(OC)c1CN1CCCC1` [Example 254, ((6-(difluoromethoxy)-2-(3″,5″-dimethoxy-2,2′-dimethyl-4″-(pyrrolidin-1-ylmethyl)-[1,1′:3′,1″- terphenyl]-3-yl)benzo[d]oxazol-5-yl)methyl)-L-proline hydrochloride], the IC50 was determined as 16 nM.

`Cc1c(-c2ccc(C3CCCN3)cc2)cccc1-c1cccc(-c2nc3cc(CN4CCC[C@H]4C(=O)O)c(OC(F)F)cc3o2)c1C` (stereo partly drawn) [Example 255, ((6-(difluoromethoxy)-2-(2,2′-dimethyl-4″- (pyrrolidin-2-yl)-[1,1′:3′,1″-terphenyl]-3-yl)benzo[d]oxazol-5-yl)methyl)-L-proline] showed an IC50 of 2.3 nM.

Still in this assay, the particulars now being: range symbols.
Turning to `Cc1c(-c2nc3cc(CN4CCC[C@H]4C(=O)O)c(OC(F)F)cc3o2)cccc1-c1cccc(-c2ccc(CN3CCCC3)cc2F)c1C` [Example 220, ((6-(difluoromethoxy)-2-(2″-fluoro-2,2′-dimethyl-4″-(pyrrolidin-1-ylmethyl)-[1,1′:3′,1″- terphenyl]-3-yl)benzo[d]oxazol-5-yl)methyl)proline], the IC50 was in the range of 0.1 to 5 nM.

Consider `Cc1c(-c2nc3cc(CN4CCC[C@H]4C(=O)O)c(OC(F)F)cc3o2)cccc1-c1cccc(-c2ccc(CN3CCCC3)cc2F)c1Br` [Example 221, ((2-(2′-bromo-2″-fluoro-2-methyl-4″- (pyrrolidin-1-ylmethyl)-[1,1′:3′,1″-terphenyl]-3-yl)-6-(difluoromethoxy)benzo[d]oxazol-5-yl)methyl)proline], for which the IC50 lay in the range of 0.1 to 5 nM.

For the compound `Cc1c(-c2nc3cc(CN4CCC[C@H]4C(=O)O)c(OC(F)F)cc3o2)cccc1-c1cccc(-c2ccc(CN3CCCC3)cc2F)c1Cl` [Example 222, ((2-(2′-chloro-2″-fluoro-2-methyl-4″- (pyrrolidin-1-ylmethyl)-[1,1′:3′,1″-terphenyl]-3-yl)-6-(difluoromethoxy)benzo[d]oxazol-5-yl)methyl)proline], the IC50 fell in the range of 0.1 to 5 nM.

Consider `Cc1c(-c2nc3cc(CN4CCC[C@H]4C(=O)O)c(OC(F)F)cc3o2)cccc1-c1cccc(-c2ccc(CN3CCCC3)cc2F)c1Cl` [Example 223, ((2-(2′-chloro-2″-fluoro-2-methyl-4″- (pyrrolidin-1-ylmethyl)-[1,1′:3′,1″-terphenyl]-3-yl)-6-(difluoromethoxy)benzo[d]oxazol-5-yl)methyl)-L-proline], for which the IC50 lay within 0.1 to 5 nM.

`Cc1c(-c2nc3cc(CN4CCC[C@@H]4C(=O)O)c(OC(F)F)cc3o2)cccc1-c1cccc(-c2ccc(CN3CCCC3)cc2F)c1Cl` [Example 224, ((2-(2′-chloro-2″-fluoro-2-methyl-4″- (pyrrolidin-1-ylmethyl)-[1,1′:3′,1″-terphenyl]-3-yl)-6-(difluoromethoxy)benzo[d]oxazol-5-yl)methyl)-D-proline] registered an IC50 of 0.1 to 5 nM.

With `Cc1c(-c2ccc(CN3CC[C@H](CO)C3)c(C#N)c2)cccc1-c1cccc(-c2nc3cc(CN4CCC[C@H]4C(=O)O)c(OC(F)F)cc3o2)c1C` [Example 240, ((2-(3″-cyano-4″-(((S)-3-(hydroxymethyl)pyrrolidin-1-yl)methyl)-2,2′-dimethyl-[l,1′:3′,1″-terphenyl]-3-yl)-6-(difluoromethoxy)benzo[d]oxazol-5-yl)methyl)-L-proline], the IC50 was in the range of 5 to 50 nM.

With `Cc1c(-c2ccc(CN3CCCC3)c(OCCc3ccc(F)cc3)c2)cccc1-c1cccc(-c2nc3cc(CN4CCC[C@H]4C(=O)O)c(OC(F)F)cc3o2)c1C` [Example 249, ((6-(difluoromethoxy)-2-(3″-(4-fluorophenethoxy)-2,2′-dimethyl-4″-(pyrrolidin-1-ylmethyl)-[1,1′:3′,1″-terphenyl]-3-yl)benzo[d]oxazol-5-yl)methyl)proline], the IC50 fell in the range of 5 to 50 nM.

In turn, `Cc1c(-c2ccc(CN3CCCC3)c(OCC3CC3)c2)cccc1-c1cccc(-c2nc3cc(CN4CCC[C@H]4C(=O)O)c(OC(F)F)cc3o2)c1C` [Example 250, ((2-(3″-(cyclopropylmethoxy)-2,2′-dimethyl-4″- (pyrrolidin-1-ylmethyl)-[1,1′:3′,1″-terphenyl]-3-yl)-6-(difluoromethoxy)benzo[d]oxazol-5-yl)methyl)proline] gave an IC50 of 0.1 to 5 nM.

As to `Cc1c(-c2ccc(CN3CC[C@@H](c4nnn[nH]4)C3)c(F)c2)cccc1-c1cccc(-c2nc3cc(CN4CCC[C@H]4C(=O)O)c(OC(F)F)cc3o2)c1C` [Example 251, ((2-(4″-(((R)-3-(1H-tetrazol-5-yl)pyrrolidin-1-yl)methyl)-3″-fluoro-2,2′-dimethyl-[1,1′:3′,1″- terphenyl]-3-yl)-6-(difluoromethoxy)benzo[d]oxazol-5-yl)methyl)proline], the IC50 lay in the range of 5 to 50 nM.

Consider `Cc1c(-c2ccc([C@H](N)C(=O)O)cc2)cccc1-c1cccc(-c2nc3cc(CN4CCC[C@H]4C(=O)O)c(OC(F)F)cc3o2)c1C` [Example 256, ((2-(4″-((S)-amino(carboxy)methyl)-2,2′-dimethyl-[1,1′:3′,1″-terphenyl]-3-yl)-6-(difluoromethoxy)benzo[d]oxazol-5-yl)methyl)-L-proline], for which the IC50 was more than 50 nM.
